Earlier results as cited in patent US11044905B2, “Tablet with an antimycotic agent, medical device and method for preserving harvested corneas” (ALCHILIFE S.R.L., priority 2018, dated 2021).

Details: organ culture preservation, 31° C.

In the case of `C[C@@H]1[C@H](O)[C@@H](C)/C=C/C=C/C=C/C=C/C=C/C=C/C=C/[C@H](O[C@@H]2O[C@H](C)[C@@H](O)[C@H](N)[C@@H]2O)C[C@@H]2O[C@](O)(C[C@@H](O)C[C@@H](O)[C@H](O)CC[C@@H](O)C[C@@H](O)CC(=O)O[C@H]1C)C[C@H](O)[C@H]2C(=O)O` [Amphotericin B], the “period of effective protection under conditions of use” value is given as no more than 14 days.
